Measured values taken from US9527847B2, “Treatment of lupus, fibrotic conditions, and inflammatory myopathies and other disorders using PI3 kinase inhibitors” (INFINITY PHARMACEUTICALS, INC., priority 2012, dated 2016).
Several values for one entry are separate records, joined by “and”; a condition that tells them apart may be missing. Identical values can stand only once.

Test system: mouse EAE model
Test: Experimental Autoimmune Encephalomyelitis (EAE) model, semi-therapeutic, 28 day
Type: in vivo
Conditions: for End % body weight +/− SD: Day 27 relative to Day −1; for End score +/− SD: Day 28; for Mean day of EAE onset: after immunization, mice which developed EAE; for Inflammatory foci +/− SD: per spinal cord section; for Demyelination (LFB) +/− SD: score per section
Protocol: EAE was induced in 60 mice using Hooke Kit™ MOG35-55/CFA Emulsion PTX (Hooke Laboratories, Lawrence Mass.), catalog number EK-0110, lot number 0104, per manufacturer's recommended protocol, except that pertussis toxin was diluted with phosphate buffered saline to achieve 1.4× and 1.3× solution (starting from the 1.5× solution in the kit). This was done to optimize disease severity for this particular study.
Mice were injected subcutaneously, at two sites in the back, with the emulsion component of the kit (containing MOG35-55). One site of injection was in the area of the upper back, approximately 1 cm caudal of the neck line. The second site was in the area of the lower back, approximately 2 cm cranial of the base of the tail. Injection volume was 0.1 mL at each site. Within 2 hours of the injection of emulsion, and then again 24 hours after the injection of emulsion, the pertussis toxin component of the kit was administered intraperitoneally. Volume of each injection was 0.1 mL.
Vehicle for Group 2 (FTY720) was water and 2% ethanol. Vehicle for all other groups was water, 0.5% CMC (low viscosity), and 0.05% Tween80. Mice were dosed at the same time every day, +/−1 hour. The last day of dosing was Day 27 after immunization.
Readouts were EAE scores and changes in body weight. Mice were scored daily from Day 7 to Day 28, and body weights were measured three times/week (Monday, Wednesday and Friday), starting on Day −1.
EAE was scored on scale 0 to 5: • 0 No obvious changes in motor functions of the mouse in comparison to non-immunized mice. When picked up by the tail, the tail has tension and is erect. Hind legs are usually spread apart. When the mouse is walking, there is no gait or head tilting. • 1 Limp tail. When the mouse is picked up by the tail, instead of being erect, the whole tail drapes over finger. • 2 Limp tail and weakness of hind legs. When mouse is picked up by tail, legs are not spread apart, but held closer together. When the mouse is observed walking, it has a clearly apparent wobbly walk. • 3 Limp tail and complete paralysis of hind legs (most common); or limp tail with paralysis of one front and one hind leg; or all of: severe head tilting, walking only along the edges of the cage, pushing against the cage wall, and spinning when picked up by the tail. • 4 Limp tail, complete hind leg and partial front leg paralysis. Mouse is minimally moving around the cage but appears alert and feeding Usually, euthanasia is recommended after the mouse scores level 4 for 2 days. When the mouse is euthanized because of severe paralysis, score of 5 is entered for that mouse for the rest of the experiment. • 5 Complete hind and complete front leg paralysis, no movement around the cage; or mouse is spontaneously rolling in the cage; or mouse is found dead due to paralysis.
At the end of the study 3 luxol fast blue (LFB) stained sections and 3 H&E sections, from lumbar, thoracic, and cervical spinal cord of all mice in Groups 1, 2, 3, and 6 and the 3 naïve mice were prepared and analyzed.
Inflammatory foci were counted in each H&E stained section. Each group of approximately 20 cells was counted as one focus. Foci larger than 20 cells were counted based on an estimate of how many foci of 20 cells were present.
The demyelination score represents an estimate of demyelinated area for each section as follows. For LFB stained slides, the demyelinated area was estimated based on intensity of blue staining of myelin. For H&E stained sections, demyelinated area was estimated by looking for interruption of normal structure—pallor and vacuolation consistent with edema and demyelination, and dilated axons. • 0—no demyelination (less than 5% demyelinated area) • 1—5 to 20% demyelinated area • 2—20 to 40% demyelinated area • 3—40 to 60% demyelinated area • 4—60 to 80% demyelinated area • 5—80 to 100% demyelinated area.
The number of apoptotic cells in each of the three H&E sections was determined.

## C[C@H](Nc1ncnc2[nH]cnc12)c1cc2cccc(Cl)c2c(=O)n1-c1ccccc1 [Compound 292]
0.3 mg/kg QD p.o.
  Apoptotic cells, average per section+/−SD: 1.7+/−0.9
  Demyelination score (H&E sections), average per section+/−SD: 1.5+/−0.5
  MMS +/− SD: 2.50+/−0.85
  Median Day of Onset: 11.5 days
  End % body weight +/− SD: 96.1+/−11.8%
  End score +/− SD: 1.60+/−1.02
  Mean day of EAE onset: 11.3 ± 0.4 days
  Inflammatory foci +/− SD: 2.9+/−1.5
  Demyelination (LFB) +/− SD: 1.2+/−0.7
1 mg/kg QD p.o.
  MMS +/− SD: 2.70+/−0.72
  Median Day of Onset: 11 days and 11.0 days
  End % body weight +/− SD: 99.0+/−7.4%
  End score +/− SD: 1.40+/−0.81
  Mean day of EAE onset: 12.5 ± 1.0 days
3 mg/kg QD p.o.
  MMS +/− SD: 3.40+/−0.21
  Median Day of Onset: 12 days and 12.0 days
  End % body weight +/− SD: 87.7+/−6.4%
  End score +/− SD: 2.65+/−0.67
  Mean day of EAE onset: 12.1 ± 0.7 days
10 mg/kg QD p.o.
  Apoptotic cells, average per section+/−SD: 2.2+/−1.0
  Demyelination score (H&E sections), average per section+/−SD: 1.9+/−0.8
  MMS +/− SD: 2.55+/−0.76
  Median Day of Onset: 14 days and 14.0 days
  End % body weight +/− SD: 95.6+/−8.5%
  End score +/− SD: 1.65+/−0.85
  Mean day of EAE onset: 14.4 ± 1.5 days
  Inflammatory foci +/− SD: 5.2+/−3.2
  Demyelination (LFB) +/− SD: 1.6+/−0.8
